From US8951560B2, “Isoflavone nanoparticles and use thereof” (DSM IP Assets B.V., priority 2005, dated 2015)

Columns and labels:
[1] = "swing" test (changing temperature test) of genistein-containing emulsions (Example 10); format: physicochemical; conditions: FIG. 7, comparative: emulsions with example 7 genistein after dry grinding in a Jet mill, 0.3%, 0.5%, 0.1%; ten sequences 5° C./43° C.
Protocol: To force the crystallization in a disperse system, a test was used in which the temperature is changed over a self-defined timeframe and in self-defined sequences. The test is called “swing” test (changing temperature test). The purpose of this test is to dissolve small particles at the higher temperature and to force re-crystallization at lower temperature. […] The following formulations were used for the “swing” test: […]
Oil- and water phase (o+w) were separately heated up to 70° C. (±5° C.) and were added together. The thickening agent (t) was added under moderate agitation. The mixture was homogenized for 30 seconds at 24,000 RPM by means of an Ultra-Turrax T25 homogenizer. The emulsion was cooled down slowly to 45° C.±5° C. under moderate stirring (horseshoe mixer, 120 RPM). At this temperature the pH value was adjusted to pH 6.5-7.0 by adding base (b). Genistein (g) was added to the still fluid emulsion and was incorporated by homogenizing again for 30 sec. 24,000 RPM by means of an Ultra-Turrax T25 homogenizer. The formulation was cooled down to 25° C.±5° C. under moderate stirring (horseshoe mixer, 120 RPM). […]
FIGS. 5 to 7 show the results of the “swing” test. […] The following genistein samples and concentrations were employed and the emulsions were measured immediately after preparation and after subjecting the samples to ten sequences of the “swing” test: […]

[2] = Genistein particle size by laser diffraction technique (Mastersizer 2000); format: physicochemical
[3] = Example 1, after homogenization (42 passes) and spray-drying, powder re-dispersed in water
[4] = Example 1, after homogenization (42 passes), 1500 bar, with starch sodium octenyl succinate, aqueous suspension
[5] = Example 1, before homogenization
[6] = Example 2, after homogenization (40 passes), 1500 bar, water only, no carrier
[7] = Example 2, after homogenization (42 passes) and spray-drying, powder re-dispersed in water
[8] = Example 2, after homogenization (42 passes), starch sodium octenyl succinate solution added after 40th pass
[9] = Example 2, before homogenization
[10] = Example 3, after homogenization (40 passes), 1500 bar, water only, no carrier
[11] = Example 3, after homogenization (42 passes) and spray-drying, powder re-dispersed in water
[12] = Example 3, after homogenization (42 passes), starch sodium octenyl succinate solution added after 40th pass
[13] = Example 3, before homogenization
[14] = Example 4, after homogenization (20 passes), 700 bar, water only, no carrier, about 20% solid
[15] = Example 4, before homogenization
[16] = Example 5, Table XI, after homogenization (42 passes) and spray-drying as headed, maltodextrin solution added after 40th pass
[17] = Example 5, Table XII, after homogenization (42 passes) and spray-drying, maltodextrin carrier, powder re-dispersed in water
[18] = Example 5, after homogenization (20 passes), 1500 bar, water only, no carrier
[19] = Example 5, before homogenization
[20] = Example 6, after homogenization (11 passages) in agitated bead mill, with starch sodium octenyl succinate
[21] = Example 6, before homogenization
[22] = Example 7, Table XIV, before milling and homogenization
[23] = Example 7, Table XV, before milling and homogenization
[24] = Example 7, after milling (Jet mill) and homogenization (12 times, 700 bar) with starch sodium octenyl succinate
[25] = Example 7, after milling, homogenization and spray drying

O=c1c(-c2ccc(O)cc2)coc2cc(O)cc(O)c12 [Genistein, 4′,5,7-trihydroxyisoflavone]
Particle size change in the "swing" test [1]: Huge crystals are formed
Average particle size D[3, 2] [2, 3]: 0.14 microns
Average particle size D[4, 3] [2, 3]: 0.83 microns
Genistein particle size D (v, 0.1) [2, 3]: 0.07 microns
Genistein particle size D (v, 0.5) [2, 3]: 0.16 microns
Genistein particle size D (v, 0.9) [2, 3]: 2.86 microns
Average particle size D[3, 2] [2, 4]: 0.15 microns
Average particle size D[4, 3] [2, 4]: 0.97 microns
Genistein particle size D (v, 0.1) [2, 4]: 0.07 microns
Genistein particle size D (v, 0.5) [2, 4]: 0.17 microns
Genistein particle size D (v, 0.9) [2, 4]: 3.65 microns
Average particle size D[3, 2] [2, 5]: 23.1 microns
Average particle size D[4, 3] [2, 5]: 48.5 microns
Genistein particle size D (v, 0.1) [2, 5]: 17.1 microns
Genistein particle size D (v, 0.5) [2, 5]: 41.9 microns
Genistein particle size D (v, 0.9) [2, 5]: 91.0 microns
Average particle size D[3, 2] [2, 6]: 0.14 microns
Average particle size D[4, 3] [2, 6]: 0.76 microns
Genistein particle size D (v, 0.1) [2, 6]: 0.07 microns
Genistein particle size D (v, 0.5) [2, 6]: 0.16 microns
Genistein particle size D (v, 0.9) [2, 6]: 2.42 microns
Average particle size D[3, 2] [2, 7]: 0.14 microns
Average particle size D[4, 3] [2, 7]: 0.55 microns
Genistein particle size D (v, 0.1) [2, 7]: 0.07 microns
Genistein particle size D (v, 0.5) [2, 7]: 0.15 microns
Genistein particle size D (v, 0.9) [2, 7]: 1.14 microns
Average particle size D[3, 2] [2, 8]: 0.14 microns
Average particle size D[4, 3] [2, 8]: 0.41 microns
Genistein particle size D (v, 0.1) [2, 8]: 0.07 microns
Genistein particle size D (v, 0.5) [2, 8]: 0.16 microns
Genistein particle size D (v, 0.9) [2, 8]: 0.93 microns
Average particle size D[3, 2] [2, 9]: 23.1 microns
Average particle size D[4, 3] [2, 9]: 48.5 microns
Genistein particle size D (v, 0.1) [2, 9]: 17.1 microns
Genistein particle size D (v, 0.5) [2, 9]: 41.9 microns
Genistein particle size D (v, 0.9) [2, 9]: 91.0 microns
Average particle size D[3, 2] [2, 10]: 0.14 microns
Average particle size D[4, 3] [2, 10]: 0.76 microns
Genistein particle size D (v, 0.1) [2, 10]: 0.07 microns
Genistein particle size D (v, 0.5) [2, 10]: 0.16 microns
Genistein particle size D (v, 0.9) [2, 10]: 2.00 microns
Average particle size D[3,2] (surface mean diameter) [2, 11]: 0.14 microns
Average particle size D[4, 3] [2, 11]: 0.43 microns
Genistein particle size D (v, 0.1) [2, 11]: 0.07 microns
Genistein particle size D (v, 0.5) [2, 11]: 0.16 microns
Genistein particle size D (v, 0.9) [2, 11]: 0.97 microns
Average particle size D[3, 2] [2, 12]: 0.14 microns
Average particle size D[4, 3] [2, 12]: 0.40 microns
Genistein particle size D (v, 0.1) [2, 12]: 0.07 microns
Genistein particle size D (v, 0.5) [2, 12]: 0.16 microns
Genistein particle size D (v, 0.9) [2, 12]: 0.91 microns
Average particle size D[3, 2] [2, 13]: 23.1 microns
Average particle size D[4, 3] [2, 13]: 48.5 microns
Genistein particle size D (v, 0.1) [2, 13]: 17.1 microns
Genistein particle size D (v, 0.5) [2, 13]: 41.9 microns
Genistein particle size D (v, 0.9) [2, 13]: 91.0 microns
Average particle size D[3, 2] [2, 14]: 0.13 microns
Average particle size D[4, 3] [2, 14]: 0.83 microns
Genistein particle size D (v, 0.1) [2, 14]: 0.07 microns
Genistein particle size D (v, 0.5) [2, 14]: 0.15 microns
Genistein particle size D (v, 0.9) [2, 14]: 2.62 microns
Average particle size D[3, 2] [2, 15]: 23.1 microns
Average particle size D[4, 3] [2, 15]: 48.5 microns
Genistein particle size D (v, 0.1) [2, 15]: 17.1 microns
Genistein particle size D (v, 0.5) [2, 15]: 41.9 microns
Genistein particle size D (v, 0.9) [2, 15]: 91.0 microns
Average particle size D[3, 2] [2, 16]: 0.14 microns
Average particle size D[4, 3] [2, 16]: 0.41 microns
Genistein particle size D (v, 0.1) [2, 16]: 0.07 microns
Genistein particle size D (v, 0.5) [2, 16]: 0.16 microns
Genistein particle size D (v, 0.9) [2, 16]: 0.93 microns
Average particle size D[3, 2] [2, 17]: 0.13 microns
Average particle size D[4, 3] [2, 17]: 0.41 microns
Genistein particle size D (v, 0.1) [2, 17]: 0.07 microns
Genistein particle size D (v, 0.5) [2, 17]: 0.15 microns
Genistein particle size D (v, 0.9) [2, 17]: 0.93 microns
Average particle size D[3,2] (surface mean diameter) [2, 18]: 0.14 microns
Average particle size D[4, 3] [2, 18]: 0.42 microns
Genistein particle size D (v, 0.1) [2, 18]: 0.07 microns
Genistein particle size D (v, 0.5) [2, 18]: 0.16 microns
Genistein particle size D (v, 0.9) [2, 18]: 0.92 microns
Average particle size D[3,2] (surface mean diameter) [2, 19]: 23.1 microns
Average particle size D[4, 3] [2, 19]: 48.5 microns
Genistein particle size D (v, 0.1) [2, 19]: 17.8 microns
Genistein particle size D (v, 0.5) [2, 19]: 41.4 microns
Genistein particle size D (v, 0.9) [2, 19]: 90.2 microns
Average particle size D[4, 3] [2, 20]: 0.23 microns
Genistein particle size D (v, 0.1) [2, 20]: 0.07 microns
Genistein particle size D (v, 0.5) [2, 20]: 0.16 microns
Genistein particle size D (v, 0.9) [2, 20]: 0.45 microns
Average particle size D[4, 3] [2, 21]: 48.5 microns
Genistein particle size D (v, 0.1) [2, 21]: 17.8 microns
Genistein particle size D (v, 0.5) [2, 21]: 41.4 microns
Genistein particle size D (v, 0.9) [2, 21]: 90.2 microns
Average particle size D[4, 3] [2, 22]: 48.5 microns
Genistein particle size D (v, 0.1) [2, 22]: 17.8 microns
Genistein particle size D (v, 0.5) [2, 22]: 41.4 microns
Genistein particle size D (v, 0.9) [2, 22]: 90.2 microns
Average particle size D[4, 3] [2, 23]: 48.5 microns
Genistein particle size D (v, 0.1) [2, 23]: 17.8 microns
Genistein particle size D (v, 0.5) [2, 23]: 41.4 microns
Genistein particle size D (v, 0.9) [2, 23]: 90.2 microns
Average particle size D[4, 3] [2, 24]: 0.53 microns
Genistein particle size D (v, 0.1) [2, 24]: 0.07 microns
Genistein particle size D (v, 0.5) [2, 24]: 0.18 microns
Genistein particle size D (v, 0.9) [2, 24]: 1.38 microns
Average particle size D[4, 3] [2, 25]: 0.65 microns
Genistein particle size D (v, 0.1) [2, 25]: 0.08 microns
Genistein particle size D (v, 0.5) [2, 25]: 0.19 microns
Genistein particle size D (v, 0.9) [2, 25]: 1.84 microns
